Source: the supplement of paper PMC13207355

How the values were obtained:
Conditions in all cases: exposure time: 72 h
[1] = test system: E13 (patient-derived glioblastoma stem cells of classical subtype); experiment: surviving fraction (nuclei count normalised to DMSO); higher = more cells surviving (less toxic)
[2] = test system: E21 (patient-derived glioblastoma stem cells of mesenchymal subtype); experiment: as above
[3] = test system: E28 (patient-derived glioblastoma stem cells of classical subtype); experiment: as above
[4] = test system: E31 (patient-derived glioblastoma stem cells of proneural subtype); experiment: as above
[5] = test system: E34 (patient-derived glioblastoma stem cells of proneural subtype); experiment: as above
[6] = test system: E57 (patient-derived glioblastoma stem cells of mesenchymal subtype); experiment: as above
[7] = test system: FT3469 (normal neural stem cell line); experiment: as above
[8] = test system: E13; experiment: phenotypic distance (Euclidean, principal components) from DMSO controls (arbitrary units); higher = stronger morphological change
[9] = test system: E21; experiment: as above
[10] = test system: E28; experiment: as above
[11] = test system: E31; experiment: as above
[12] = test system: E34; experiment: as above
[13] = test system: E57; experiment: as above
[14] = test system: FT3469; experiment: as above
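Throughout, for phenotypic distance (Euclidean, principal components) from DMSO controls: cell Painting imaging in 384-well plates, CellProfiler features reduced to at least 20 principal components, Euclidean distance versus same-plate DMSO vehicle wells (0.1% v/v), median over six images per well.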
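Throughout, for surviving fraction (nuclei count normalised to DMSO): nuclei counted by high-content imaging of Hoechst-stained cells in laminin-coated 384-well plates, relative to 0.1% DMSO vehicle wells, with staurosporine as cell-death control.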

CCCSc1ccc2[nH]c(NC(=O)OC)nc2c1 [Albendazole]
Conditions	phenotypic distance	surviving fraction
[1], 4.1 nM	–	0.787
[1], 12.3 nM	–	0.877
[1], 37 nM	–	0.931
[1], 111.1 nM	–	0.655
[1], 333.3 nM	–	0.439
[1], 1000 nM	–	0.373
[1], 3000 nM	–	0.222
[2], 4.1 nM	–	0.887
[2], 12.3 nM	–	0.807
[2], 37 nM	–	0.834
[2], 111.1 nM	–	0.804
[2], 333.3 nM	–	0.755
[2], 1000 nM	–	0.169
[2], 3000 nM	–	0.118
[3], 4.1 nM	–	0.86
[3], 12.3 nM	–	0.988
[3], 37 nM	–	0.734
[3], 111.1 nM	–	1.04
[3], 333.3 nM	–	0.719
[3], 1000 nM	–	0.536
[3], 3000 nM	–	0.28
[4], 4.1 nM	–	0.993
[4], 12.3 nM	–	0.833
[4], 37 nM	–	0.874
[4], 111.1 nM	–	0.758
[4], 333.3 nM	–	0.408
[4], 1000 nM	–	0.186
[4], 3000 nM	–	0.0928
[5], 4.1 nM	–	0.934
[5], 12.3 nM	–	1.06
[5], 37 nM	–	0.937
[5], 111.1 nM	–	0.927
[5], 333.3 nM	–	0.656
[5], 1000 nM	–	0.476
[5], 3000 nM	–	0.439
[6], 4.1 nM	–	1.02
[6], 12.3 nM	–	0.99
[6], 37 nM	–	0.873
[6], 111.1 nM	–	0.909
[6], 333.3 nM	–	0.715
[6], 1000 nM	–	0.257
[6], 3000 nM	–	0.0825
[7], 4.1 nM	–	0.783
[7], 12.3 nM	–	0.812
[7], 37 nM	–	0.76
[7], 111.1 nM	–	0.924
[7], 333.3 nM	–	0.725
[7], 1000 nM	–	0.662
[7], 3000 nM	–	0.504
[8], 4.1 nM	1.01	–
[8], 12.3 nM	0.56	–
[8], 37 nM	0.737	–
[8], 111.1 nM	2.95	–
[8], 333.3 nM	4.43	–
[8], 1000 nM	4.68	–
[8], 3000 nM	7.36	–
[9], 4.1 nM	1.02	–
[9], 12.3 nM	0.918	–
[9], 37 nM	1.01	–
[9], 111.1 nM	1.35	–
[9], 333.3 nM	3.4	–
[9], 1000 nM	7.12	–
[9], 3000 nM	8.62	–
[10], 4.1 nM	0.748	–
[10], 12.3 nM	0.904	–
[10], 37 nM	0.875	–
[10], 111.1 nM	1.25	–
[10], 333.3 nM	2.28	–
[10], 1000 nM	3.22	–
[10], 3000 nM	3.85	–
[11], 4.1 nM	0.384	–
[11], 12.3 nM	0.712	–
[11], 37 nM	0.564	–
[11], 111.1 nM	1.13	–
[11], 333.3 nM	3.4	–
[11], 1000 nM	5.94	–
[11], 3000 nM	5.22	–
[12], 4.1 nM	0.51	–
[12], 12.3 nM	1.47	–
[12], 37 nM	1.32	–
[12], 111.1 nM	0.857	–
[12], 333.3 nM	2.54	–
[12], 1000 nM	3.76	–
[12], 3000 nM	5.5	–
[13], 4.1 nM	0.729	–
[13], 12.3 nM	1.11	–
[13], 37 nM	0.859	–
[13], 111.1 nM	1.5	–
[13], 333.3 nM	3.52	–
[13], 1000 nM	5.59	–
[13], 3000 nM	4.71	–
[14], 4.1 nM	0.912	–
[14], 12.3 nM	1.05	–
[14], 37 nM	0.721	–
[14], 111.1 nM	1.33	–
[14], 333.3 nM	2.27	–
[14], 1000 nM	3.43	–
[14], 3000 nM	3.98	–

CCC(=O)OCC(=O)[C@@]1(OC(=O)CC)[C@H](C)C[C@H]2[C@H]3[C@H]([C@@H](O)C[C@@]21C)[C@@]1(C)C=CC(=O)C=C1C[C@H]3Cl [Alclometasone dipropionate]
Conditions	phenotypic distance	surviving fraction
[1], 4.1 nM	–	0.975
[1], 12.3 nM	–	0.888
[1], 37 nM	–	0.926
[1], 111.1 nM	–	0.859
[1], 333.3 nM	–	0.951
[1], 1000 nM	–	0.974
[1], 3000 nM	–	0.671
[2], 4.1 nM	–	1.32
[2], 12.3 nM	–	1.26
[2], 37 nM	–	1.21
[2], 111.1 nM	–	1.39
[2], 333.3 nM	–	1.2
[2], 1000 nM	–	1.2
[2], 3000 nM	–	1.1
[3], 4.1 nM	–	1.25
[3], 12.3 nM	–	0.854
[3], 37 nM	–	1.17
[3], 111.1 nM	–	0.928
[3], 333.3 nM	–	1.08
[3], 1000 nM	–	1.38
[3], 3000 nM	–	0.939
[4], 4.1 nM	–	1.3
[4], 12.3 nM	–	1.46
[4], 37 nM	–	1.4
[4], 111.1 nM	–	1.41
[4], 333.3 nM	–	1.12
[4], 1000 nM	–	1.19
[4], 3000 nM	–	1.23
[5], 4.1 nM	–	1.1
[5], 12.3 nM	–	1.15
[5], 37 nM	–	1.1
[5], 111.1 nM	–	1.1
[5], 333.3 nM	–	0.991
[5], 1000 nM	–	1.06
[5], 3000 nM	–	0.984
[6], 4.1 nM	–	1.12
[6], 12.3 nM	–	1.18
[6], 37 nM	–	1.1
[6], 111.1 nM	–	1.07
[6], 333.3 nM	–	1.11
[6], 1000 nM	–	1.14
[6], 3000 nM	–	1.13
[7], 4.1 nM	–	1.16
[7], 12.3 nM	–	1.29
[7], 37 nM	–	1.33
[7], 111.1 nM	–	1.15
[7], 333.3 nM	–	1.07
[7], 1000 nM	–	1.19
[7], 3000 nM	–	1.02
[8], 4.1 nM	1.28	–
[8], 12.3 nM	1.12	–
[8], 37 nM	1.27	–
[8], 111.1 nM	1.15	–
[8], 333.3 nM	1.25	–
[8], 1000 nM	1.24	–
[8], 3000 nM	1.47	–
[9], 4.1 nM	1.94	–
[9], 12.3 nM	2.13	–
[9], 37 nM	2.45	–
[9], 111.1 nM	3.04	–
[9], 333.3 nM	2.13	–
[9], 1000 nM	2.23	–
[9], 3000 nM	2.27	–
[10], 4.1 nM	0.573	–
[10], 12.3 nM	0.69	–
[10], 37 nM	0.865	–
[10], 111.1 nM	0.821	–
[10], 333.3 nM	0.465	–
[10], 1000 nM	1.06	–
[10], 3000 nM	0.433	–
[11], 4.1 nM	2.71	–
[11], 12.3 nM	4.05	–
[11], 37 nM	4.11	–
[11], 111.1 nM	3.84	–
[11], 333.3 nM	2.94	–
[11], 1000 nM	3.4	–
[11], 3000 nM	3.3	–
[12], 4.1 nM	0.626	–
[12], 12.3 nM	1.12	–
[12], 37 nM	0.662	–
[12], 111.1 nM	1.42	–
[12], 333.3 nM	1.36	–
[12], 1000 nM	1.38	–
[12], 3000 nM	1.48	–
[13], 4.1 nM	1.91	–
[13], 12.3 nM	2.63	–
[13], 37 nM	2.58	–
[13], 111.1 nM	2.62	–
[13], 333.3 nM	3.15	–
[13], 1000 nM	3.25	–
[13], 3000 nM	2.81	–
[14], 4.1 nM	1.11	–
[14], 12.3 nM	1.62	–
[14], 37 nM	1.67	–
[14], 111.1 nM	2.12	–
[14], 333.3 nM	1.8	–
[14], 1000 nM	1.92	–
[14], 3000 nM	1.23	–
